Tests used:
[1] = test system: A2780 cells; test: In-vitro cell proliferation assay (SRB, 72 hours); type: cell-based; details: Homo sapiens, sulforhodamine B (SRB) assay
Summary of the method: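 Background from media-only plate subtracted; inhibition relative to DMSO-treated cells, value derived by interpolation between two concentrations.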

[2] = target: T1, Recombinant His-tagged NAMPT (Homo sapiens, UniProt P43490); test: Biochemical inhibition assay: NAMPT enzymatic reaction, NMN quantified by mass spectrometry; details: 33 nM NAMPT, 1 μM NAM, 100 μM PRPP, 2.5 mM ATP, 30 minutes at room temperature; read-out: Biochem IC50
T1 construct: His; host or cells: E. coli
T1 sequence (P43490 whole entry): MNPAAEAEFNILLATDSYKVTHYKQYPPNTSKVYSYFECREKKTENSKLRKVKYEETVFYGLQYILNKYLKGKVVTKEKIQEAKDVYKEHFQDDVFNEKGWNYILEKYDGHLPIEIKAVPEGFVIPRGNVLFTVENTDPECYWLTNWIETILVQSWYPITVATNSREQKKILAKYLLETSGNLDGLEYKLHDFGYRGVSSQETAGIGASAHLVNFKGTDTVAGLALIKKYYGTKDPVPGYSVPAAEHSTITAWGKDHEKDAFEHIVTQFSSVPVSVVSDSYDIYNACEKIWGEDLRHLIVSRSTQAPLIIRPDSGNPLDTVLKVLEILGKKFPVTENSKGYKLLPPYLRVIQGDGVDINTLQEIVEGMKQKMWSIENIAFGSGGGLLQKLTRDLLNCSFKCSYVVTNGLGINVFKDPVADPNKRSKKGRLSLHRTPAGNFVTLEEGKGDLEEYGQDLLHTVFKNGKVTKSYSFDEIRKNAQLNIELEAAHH
Summary of the method: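 Reaction 30 min at room temperature with 1 μM NAM, 100 μM PRPP, 2.5 mM ATP (final), quenched with formic acid. NMN quantified by RapidFire electrospray MS, normalized to L-cystathionine; IC50 from percent inhibition versus DMSO.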

Compound	IC50 [1]	IC50 [2]
O=C(NCCCCN1CCN(C(=O)c2ccccc2)CC1)c1cc2cnccc2[nH]1 [N-[4-(4-benzoylpiperazin-1-yl)butyl]-1H-pyrrolo[3,2-c]pyridine-2-carboxamide]	94.7 nM	16 nM
O=C(NCCCCCCOc1ccc(Cl)cc1)c1ccc2ncccc2c1 [N-[6-(4-chlorophenoxy)hexyl]quinoline-6-carboxamide]	9890 nM	25.9 nM
O=C(NCCC1CCN(S(=O)(=O)c2ccccc2)CC1)c1cc2cnccc2[nH]1 [N-{2-[1-(benzenesulfonyl)piperidin-4-yl]ethyl}-1H-pyrrolo[3,2-c]pyridine-2-carboxamide]	1030 nM	50.9 nM
Cn1ccc(S(=O)(=O)N2CCC(CCCCNC(=O)c3cc4cnccc4[nH]3)CC2)n1 [N-{4-[1-(1-methyl-1H-pyrazole-3-sulfonyl)piperidin-4-yl]butyl}-1H-pyrrolo[3,2-c]pyridine-2-carboxamide]	6.8 nM	49.5 nM
O=C(NCCCCC1CCN(S(=O)(=O)c2ccccc2)CC1)c1cc2cnccc2[nH]1 [N-{4-[1-(benzenesulfonyl)piperidin-4-yl]butyl}-1H-pyrrolo[3,2-c]pyridine-2-carboxamide]	6.7 nM	24.9 nM
CC(C)S(=O)(=O)N1CCC(CCCCNC(=O)c2cc3cnccc3[nH]2)CC1 [N-{4-[1-(propane-2-sulfonyl)piperidin-4-yl]butyl}-1H-pyrrolo[3,2-c]pyridine-2-carboxamide]	23 nM	30.6 nM
O=C(NCCCCC1CCN(S(=O)(=O)c2cccnc2)CC1)c1cc2cnccc2[nH]1 [N-{4-[1-(pyridine-3-sulfonyl)piperidin-4-yl]butyl}-1H-pyrrolo[3,2-c]pyridine-2-carboxamide]	13.9 nM	16.1 nM
O=C(NCCCCC1CCN(C(=O)c2cc3cnccc3[nH]2)CC1)c1cc2cnccc2[nH]1 [N-{4-[1-({1H-pyrrolo[3,2-c]pyridin-2-yl}carbonyl)piperidin-4-yl]butyl}-1H-pyrrolo[3,2-c]pyridine-2-carboxamide]	11.3 nM	20.9 nM
O=C(NCCCCC1CCN(C(=O)c2cc3cnccc3[nH]2)CC1)c1ccc2nccn2c1 [N-{4-[1-({1H-pyrrolo[3,2-c]pyridin-2-yl}carbonyl)piperidin-4-yl]butyl}imidazo[1,2-a]pyridine-6-carboxamide]	13.1 nM	8.6 nM
O=C(NCCCCC1CCN(C(=O)c2cc3cnccc3[nH]2)CC1)c1cc2ccncc2s1 [N-{4-[1-({1H-pyrrolo[3,2-c]pyridin-2-yl}carbonyl)piperidin-4-yl]butyl}thieno[2,3-c]pyridine-2-carboxamide]	13.7 nM	6.9 nM
O=C(NCCCCC1CCN(C(=O)c2ccc3nccn3c2)CC1)c1cc2cnccc2[nH]1 [N-{4-[1-({imidazo[1,2-a]pyridin-6-yl}carbonyl)piperidin-4-yl]butyl}-1H-pyrrolo[3,2-c]pyridine-2-carboxamide]	13.8 nM	7.7 nM
